The record followed here is PubChem BioAssay (NCI).

“And” between values parts separate entries of the source, which are not always exact repeats. Identical values can stand only once.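 In this assay, cells in 96-well plates receive the compound at five concentrations for 48 hours. Endpoints are linearly interpolated between the surrounding concentrations. GI50: concentration for 50% inhibition of growth. Definition used: TGI = concentration required for complete inhibition of growth.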 Where a SMILES comes first, the peptide text is derived from it.

The experiment concerns MDA-MB-468 breast. The experiment can be described thus: NCI-60 cell line screen, 48 h.

Take `C#CC#CC#CC#CC#CC#CC#CC#CC[C@@H]1OC[C@H](COC(=O)O[C@@H](C(=O)O[C@H]2C[C@@]3(O)[C@@H](OC(=O)c4ccccc4)[C@@H]4[C@]5(OC(C)=O)CO[C@@H]5C[C@H](O)[C@@]4(C)C(=O)[C@H](OC(C)=O)C(=C2C)C3(C)C)[C@@H](NC(=O)c2ccccc2)c2ccccc2)O1`: the GI50 is 439 nM and the TGI came out at 1590 nM.

For the molecule `O=S(=O)(Nc1ccc2ccccc2c1)N1CCCCC1`, the GI50 was 2810 nM and the TGI turned out to be 10300 nM.

As to `COc1cc2nccc(Oc3ccc(NC(=O)C4(C(=O)Nc5ccc(F)cc5)CC4)cc3)c2cc1OC(=O)c1ccc(N)cc1`, the GI50 was 3990 nM and the TGI was more than 100000 nM.

Take `CCOc1ccccc1C(=O)/C=C/c1cc2ccccc2[nH]c1=O`: the GI50 is 162 nM and the TGI worked out at 1630 nM.

Regarding `C#CCNCCCN1C(=O)c2ccc3c4c(ccc(c24)C1=O)C(=O)N(CCCNCC#C)C3=O`, the GI50 was 129 nM and the TGI was found to be 308 nM.

For the molecule `COc1cc(-c2cc(-c3nc4ccc(F)cc4[nH]3)[nH]n2)cc(OC)c1OC`, the GI50 is 1560 nM and the TGI amounted to 9670 nM.

With `Cc1cccc(-n2cnc3cc(C(=O)N4CCCCC4)ccc32)c1`, the GI50 is 18600 nM and the TGI was more than 100000 nM.

Turning to `COc1ccc(/C=C/C(=O)Nc2cc(/C=C\c3cc(OC)c(OC)c(OC)c3)cc(OC)c2OC)cc1OC`, the GI50 was 1740 nM and the TGI worked out at 7520 nM.

Turning to `CC(=O)/C(=C\c1c(-c2ccccc2)[nH]c2ccccc12)S(C)(=O)=O`, the GI50 was 1790 nM and the TGI is 8100 nM.

With `C#CC(F)(F)[C@]1(O)CC[C@H]2[C@@H]3CCC4=CC(=O)CCC4=C3[C@@H](c3ccc(C4CC4)cc3)C[C@@]21C`, the GI50 was 121 nM and 265 nM; the TGI is 438 nM and 1520 nM.

For the molecule `CCCCCCC(O)(c1ccc(F)cc1)C(CN1CCOCC1)c1ccccc1` (stereo not given), the GI50 is 4930 nM and the TGI amounted to 18600 nM.

For `COc1ccc(CCc2nc3cc(-c4c(C)noc4C)ccc3n2CCN2CCOCC2)cc1`, the GI50 is 8780 nM and the TGI is more than 100000 nM.

With `O=C1NC(=NCc2c(Cl)cccc2Cl)S/C1=C\c1ccc2ncccc2c1`, the GI50 is 6240 nM and the TGI is more than 25000 nM.

In the case of `O=C1C=CC2(NN=C(c3ccccc3)N2c2ccccc2)c2cccc(O)c21` (stereo not given), the GI50 was 1920 nM and the TGI was 9090 nM.

As for `CCCCCCCCCCCCCCCC(=O)Nc1ccn([C@@H]2O[C@H](CO)[C@@H](O)[C@@H]2C#N)c(=O)n1`, the GI50 is 48700 nM and the TGI is more than 100000 nM.

With `O=Cc1cn(Cc2ccccc2)c2ccccc12`, the GI50 is 174 nM and the TGI came to 469 nM.

Turning to `Cn1cc(-c2csc(-c3c[nH]c4ccccc34)n2)c2cccnc21`, the GI50 is 915 nM and the TGI was found to be 4180 nM.

On to `CCNC(=O)N1CCc2c(Cl)c3c(c(OC)c2[C@@H]1[C@H]1OCc2c1ccc(OC)c2OC)OCCO3`, for which the GI50 was 2650 nM and the TGI was more than 100000 nM.

`O=C(Nc1ccccc1C(=O)N/N=C(\c1ccccc1)c1ccccn1)c1ccccc1`: the GI50 is 338 nM and the TGI was 2380 nM.

On to `CCCCCN1C(=O)/C(=c2\sc3n(c2=O)C2C(NN=3)N(CC)C(=O)N2CC)c2ccccc21` (stereo not given), for which the GI50 was 369 nM and the TGI is 2000 nM.

Turning to `C=C(C)[C@@H]1CC[C@]2(C(N)=O)CC[C@]3(C)[C@H](CC[C@@H]4[C@@]5(C)C/C(=C/c6cccnc6)C(=O)C(C)(C)[C@@H]5CC[C@]43C)[C@@H]12`, the GI50 is 3500 nM and the TGI stood at 40500 nM.

Consider `COc1ccc(C(O)c2cc3c(N)c(C(=O)Nc4ccccc4)sc3nc2C)cc1` (stereo not given), for which the GI50 was 29.8 nM and the TGI was more than 100000 nM.

Consider `COc1ccc(/C=C(/C(=O)N2CCCCC2)c2cc(OC)c(OC)c(OC)c2)cc1`, for which the GI50 is 498 nM and the TGI was more than 100000 nM.

On to `CCNCCNc1cc(-c2ccc(Cl)c(Cl)c2)c(C#N)c2nc3ccccc3n12`, for which the GI50 was 1140 nM and the TGI was 2520 nM.

With `CC(C)(C(=O)NCC(F)(F)C(F)(F)F)C(=O)N[C@@H]1C(=O)Nc2ccccc2-c2ccccc21`, the GI50 is 12700 nM and the TGI turned out to be 73000 nM.

Regarding `COC(=O)[C@]12CC[C@@H](C)[C@H](C)[C@@H]1C1=CC[C@@H]3[C@@]4(C)C[C@@H](OC(C)=O)[C@H](O)[C@@](C)(CO)[C@@H]4[C@H](O)C[C@@]3(C)[C@]1(C)CC2`, the GI50 was 8550 nM and the TGI is 22800 nM.

Take `Cn1cc(-c2nc(N)nnc2-c2c[nH]c3ccccc23)c2cc(Br)ccc21`: the GI50 was 342 nM and the TGI was determined as 2040 nM.

For the molecule `O=S(=O)(Nc1cc(F)cc(F)c1)c1ccc(-c2cnc(C3CC3)o2)cc1`, the GI50 is 1370 nM and the TGI came to 17900 nM.

Turning to `Cn1cc(C2=C(n3ccc4ccccc43)C(=O)NC2=O)c2ccccc21`, the GI50 is more than 25000 nM and the TGI was more than 25000 nM.

In the case of `COC(=O)N[C@H]1C=C[C@@H]2/C=C(C)/C=C/[C@@H](C)[C@H]([C@H](C)[C@H](O)[C@@H](C)NC(C)=O)OC(=O)/C=C/C=C(C)\C=C\[C@]2(C)C1`, the GI50 was 4.32 nM and 4.53 nM; the TGI was more than 45300 nM.

For `Fc1ccc(-c2ncn(C3CCNCC3)c2-c2ccnc(Oc3cccc(C(F)(F)F)c3)n2)cc1`, the GI50 was 1570 nM and the TGI was 5310 nM.

Consider `CCC(C)C1NC(=O)C(CCCCN)NC(=O)C(CCCCN)NC(=O)C(CC(C)C)NC(=O)C(CCCCN)NC(=O)C(C(C)CC)NC(=O)C(C(C)C)NC(=O)C(C(C)CC)NC(=O)C(CCCCN)NC(=O)C(CCCCN)NC(=O)C(C)NC(=O)C(CCCCN)NC(=O)C(CC(C)C)NC1=O` (stereo not given) (cyclo(AKKIVIKLKKILK); configuration not given here), for which the GI50 was 564 nM and the TGI was 2300 nM.

On to `COc1ccc2nc3c(n2c1)C(=O)C(=O)c1ccccc1-3`, for which the GI50 was 2180 nM and the TGI came out at 5630 nM.

`NS(=O)(=O)c1ccc(N=Nc2c(O)[nH]c3ccc(Cl)cc23)cc1`: the GI50 is more than 20100 nM and the TGI is more than 25000 nM.

Regarding `CCCCCCCCn1ccc2cc(NC(=O)Cn3cc(CN4CCN(CC)CC4)nn3)ccc21`, the GI50 is 1530 nM and the TGI is 3040 nM.
